Data on 3 molecules can be found in ChEMBL document CHEMBL1127068, “Selective inhibition of mammalian lanosterol 14 alpha-demethylase: a possible strategy for cholesterol lowering” (J Med Chem, 1993).

Broadly, the Ki is the dissociation constant of the complex between target and ligand, obtained from inhibition or displacement. By IC50 is commonly meant the concentration that gives 50% inhibition. A higher IC50 goes with weaker potency.

The structures appear in SMILES notation. Values joined by “and” are separate entries in the source; they are usually repeats but may differ in a detail not shown here. Equal entries are not always repeated.

One experiment concerns the target T1, Aromatase (Homo sapiens, UniProt P11511).
T1 sequence (P11511 whole entry): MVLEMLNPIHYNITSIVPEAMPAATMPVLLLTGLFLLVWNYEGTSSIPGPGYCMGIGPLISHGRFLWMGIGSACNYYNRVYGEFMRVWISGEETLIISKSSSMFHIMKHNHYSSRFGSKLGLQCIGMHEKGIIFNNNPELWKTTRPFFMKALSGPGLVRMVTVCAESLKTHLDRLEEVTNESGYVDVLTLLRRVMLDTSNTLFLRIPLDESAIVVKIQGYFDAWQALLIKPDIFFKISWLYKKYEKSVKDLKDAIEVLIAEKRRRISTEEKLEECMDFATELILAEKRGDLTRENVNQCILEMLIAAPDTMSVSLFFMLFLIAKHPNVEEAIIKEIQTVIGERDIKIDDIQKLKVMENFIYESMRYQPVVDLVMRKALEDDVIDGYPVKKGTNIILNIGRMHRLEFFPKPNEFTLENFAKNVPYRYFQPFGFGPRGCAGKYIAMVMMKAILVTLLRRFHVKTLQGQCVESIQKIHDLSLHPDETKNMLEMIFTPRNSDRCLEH
The experiment is described as follows: Binding affinity for Cytochrome P450 19A1.

Experiment [1] concerns Cricetinae gen. sp. The experiment is described as follows: Percentage lowering of the total serum cholesterol in male hamsters at a dose of 100 […] orally administered for 3 days. Type of experiment: functional, Cricetulus griseus.
The subject of experiment [2] is Cricetinae gen. sp. The experiment in a line: Percentage lowering of the total serum cholesterol in male hamsters at a dose of 30 mg/dL orally administered for 3 days. The experiment is classed as functional, Cricetulus griseus.
Experiment [3] has as its system Cricetinae gen. sp. The experiment in a line: Effect on total serum cholesterol in male hamsters at a dose of 10 mg/kg orally administered for 3 days. The experiment is classed as functional, Cricetulus griseus. Particulars: route oral.
Experiment [4] has as its system Cricetinae gen. sp. The experiment is described as follows: Effect on total serum cholesterol in male hamsters at a dose of 100 mg/kg orally administered for 3 days. Particulars: route oral. The experiment is classed as functional, Cricetulus griseus.
Experiment [5] relates to Cricetinae gen. sp. The experiment is described as follows: Effect on total serum cholesterol in male hamsters at a dose of 30 mg/kg orally administered for 3 days. Particulars: route oral. Type of experiment: functional, Cricetulus griseus.
The subject of experiment [6] is Cricetinae gen. sp. The experiment in a line: Percentage lowering of the total serum cholesterol in male hamsters at a dose of 10 […] orally administered for 3 days. Type of experiment: functional, Cricetulus griseus.
The species named for the next experiment is Homo sapiens. The experiment is described as follows: Inhibition of cellular cholesterol biosynthesis using human fibroblasts in tissue culture. Type of experiment: functional, organism-based.
Experiment [7] deals with T2, Cytochrome P450 11B1, mitochondrial (Homo sapiens, UniProt P15538).
T2 sequence (P15538 whole entry): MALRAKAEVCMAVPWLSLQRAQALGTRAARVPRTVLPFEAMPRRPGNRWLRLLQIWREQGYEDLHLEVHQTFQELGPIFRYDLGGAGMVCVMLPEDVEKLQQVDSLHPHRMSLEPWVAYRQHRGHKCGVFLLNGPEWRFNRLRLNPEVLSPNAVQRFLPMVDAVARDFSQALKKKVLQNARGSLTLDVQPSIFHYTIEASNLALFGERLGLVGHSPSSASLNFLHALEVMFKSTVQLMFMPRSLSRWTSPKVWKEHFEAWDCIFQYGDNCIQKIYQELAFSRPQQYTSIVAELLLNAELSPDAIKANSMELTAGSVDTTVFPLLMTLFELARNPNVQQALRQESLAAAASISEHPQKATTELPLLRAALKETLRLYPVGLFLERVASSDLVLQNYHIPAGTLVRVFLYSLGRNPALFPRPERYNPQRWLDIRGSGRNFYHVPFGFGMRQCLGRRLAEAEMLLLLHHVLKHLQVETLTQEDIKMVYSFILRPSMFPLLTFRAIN
The experiment in a line: Binding affinity for corticoid 11-beta-hydroxylase.

For experiment [8], the target named is T3, Steroid 17-alpha-hydroxylase/17,20 lyase (Homo sapiens, UniProt P05093).
T3 sequence (P05093 whole entry): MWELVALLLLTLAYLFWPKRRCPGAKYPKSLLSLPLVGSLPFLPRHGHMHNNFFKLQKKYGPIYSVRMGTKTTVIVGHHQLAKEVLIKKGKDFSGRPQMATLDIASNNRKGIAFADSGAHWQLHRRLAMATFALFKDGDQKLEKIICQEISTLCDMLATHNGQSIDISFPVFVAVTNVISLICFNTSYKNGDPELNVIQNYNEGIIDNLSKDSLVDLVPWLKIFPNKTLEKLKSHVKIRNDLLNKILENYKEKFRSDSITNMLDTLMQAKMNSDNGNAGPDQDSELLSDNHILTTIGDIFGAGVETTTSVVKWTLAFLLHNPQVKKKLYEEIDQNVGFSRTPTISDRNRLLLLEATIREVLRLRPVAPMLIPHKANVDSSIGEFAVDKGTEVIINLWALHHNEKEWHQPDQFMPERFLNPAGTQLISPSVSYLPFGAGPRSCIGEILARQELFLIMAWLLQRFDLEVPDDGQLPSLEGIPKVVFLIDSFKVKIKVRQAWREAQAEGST
The experiment is described as follows: Binding affinity for progesterone 17-alpha,20-lyase.

A further experiment has as its target Cytochrome P450 3A4 (Homo sapiens, UniProt P08684). The experiment in a line: Binding affinity for progesterone 6-beta-hydroxylase of hepatic microsomes. The experiment is classed as ADME.
Experiment [9] addresses T3, Steroid 17-alpha-hydroxylase/17,20 lyase. The experiment in a line: Binding affinity for […] 17-alpha-hydroxylase.
For experiment [10], the system named is Cricetinae gen. sp. The experiment in a line: Effect on total serum cholesterol in male hamsters at a dose of 10 mg/kg orally administered for 14 days. The experiment is classed as functional, Cricetulus griseus. Particulars: route oral.
Experiment [11] relates to Cricetinae gen. sp. The experiment is described as follows: Percentage lowering of the total serum cholesterol in male hamsters at a dose of 150 […] orally administered for 14 days. The experiment is classed as functional, Cricetulus griseus.
The test system of experiment [12] is Cricetinae gen. sp. The experiment in a line: Percentage lowering of the total serum cholesterol in male hamsters at a dose of 25 mg/dL orally administered for 14 days. The experiment is classed as functional, Cricetulus griseus.
In experiment [13] the test system is Cricetinae gen. sp. The experiment is described as follows: Percentage lowering of the total serum cholesterol in male hamsters at a dose of 5 mg/dL orally administered for 14 days. The experiment is classed as functional, Cricetulus griseus.
The test system of experiment [14] is Cricetinae gen. sp. The experiment is described as follows: Effect on total serum cholesterol in male hamsters at a dose of 100 mg/kg orally administered for 14 days. The experiment is classed as functional, Cricetulus griseus. Particulars: route oral.
Experiment [15] concerns Cricetinae gen. sp. The experiment in a line: Effect on total serum cholesterol in male hamsters at a dose of 150 mg/kg orally administered for 14 days. The experiment is classed as functional, Cricetulus griseus. Particulars: route oral.
In experiment [16] the test system is Cricetinae gen. sp. The experiment is described as follows: Effect on total serum cholesterol in male hamsters at a dose of 200 mg/kg orally administered for 14 days. The experiment is classed as functional, Cricetulus griseus. Particulars: route oral.
In experiment [17] the test system is Cricetinae gen. sp. The experiment is described as follows: Effect on total serum cholesterol in male hamsters at a dose of 25 mg/kg orally administered for 14 days. Particulars: route oral, 25 mg/kg. The experiment is classed as functional, Cricetulus griseus.
Experiment [18] deals with Cricetinae gen. sp. The experiment in a line: Effect on total serum cholesterol in male hamsters at a dose of 5 mg/kg orally administered for 14 days. Type of experiment: functional, Cricetulus griseus. Particulars: route oral.
The subject of experiment [19] is Cricetinae gen. sp. The experiment is described as follows: Effect on total serum cholesterol in male hamsters at a dose of 50 mg/kg orally administered for 14 days. The experiment is classed as functional, Cricetulus griseus. Particulars: route oral, 50 mg/kg.
Experiment [20] concerns Cricetinae gen. sp. The experiment in a line: Percentage lowering of the total serum cholesterol in male hamsters at a dose of 100 […] orally administered for 14 days. The experiment is classed as functional, Cricetulus griseus.
In experiment [21] the test system is Cricetinae gen. sp. The experiment is described as follows: Percentage lowering of the total serum cholesterol in male hamsters at a dose of 200 […] orally administered for 14 days. The experiment is classed as functional, Cricetulus griseus.
For experiment [22], the system named is Cricetinae gen. sp. The experiment is described as follows: Percentage lowering of the total serum cholesterol in male hamsters at a dose of 50 mg/dL orally administered for 14 days. Type of experiment: functional, Cricetulus griseus.
Experiment [23] has as its system Cricetinae gen. sp. The experiment in a line: Percentage lowering of the total serum cholesterol in male hamsters at a dose of 10 […] orally administered for 14 days. The experiment is classed as functional, Cricetulus griseus.
In experiment [24] the test system is Cricetinae gen. sp. The experiment is described as follows: Effect on total serum cholesterol in male hamsters at a dose of 60 mg/kg orally administered for 3 days. The experiment is classed as functional, Cricetulus griseus. Particulars: route oral.
Experiment [25] deals with Cricetinae gen. sp. The experiment in a line: Percentage lowering of the total serum cholesterol in male hamsters at a dose of 60 […] orally administered for 3 days. Type of experiment: functional, Cricetulus griseus.

Chain of Cytochrome P450 3A4 (P08684 whole entry): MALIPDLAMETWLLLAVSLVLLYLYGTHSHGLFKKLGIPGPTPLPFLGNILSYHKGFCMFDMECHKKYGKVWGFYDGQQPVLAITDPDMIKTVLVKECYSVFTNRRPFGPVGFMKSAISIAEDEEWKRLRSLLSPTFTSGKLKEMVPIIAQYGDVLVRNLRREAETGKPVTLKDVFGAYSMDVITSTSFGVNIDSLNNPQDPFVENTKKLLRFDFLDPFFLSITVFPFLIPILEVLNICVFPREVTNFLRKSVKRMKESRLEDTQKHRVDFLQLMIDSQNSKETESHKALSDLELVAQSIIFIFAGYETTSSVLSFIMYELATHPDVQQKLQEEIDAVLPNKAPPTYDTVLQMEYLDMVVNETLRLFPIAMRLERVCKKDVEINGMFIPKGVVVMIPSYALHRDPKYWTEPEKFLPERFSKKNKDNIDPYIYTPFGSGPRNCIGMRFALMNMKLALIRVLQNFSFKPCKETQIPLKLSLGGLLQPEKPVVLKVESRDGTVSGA

Regarding `Nc1ccc(SC[C@H]2CO[C@@](CCc3ccc(Cl)cc3)(Cn3ccnc3)O2)cc1`, the Ki at Aromatase is 0.013 µM; in [7], 0.015 µM; in experiment [8], 0.054 µM; on Cytochrome P450 3A4, 0.033 µM; in [9], 0.109 µM. The Lowering in the experiment with Cricetinae gen. sp. [1] is listed as 22%; in the experiment on Cricetinae gen. sp. [2], 13%; in the experiment with Cricetinae gen. sp. [6], 5%. In addition, the TC in the experiment with Cricetinae gen. sp. [3] was 105.7 mg/dL; in the experiment on Cricetinae gen. sp. [4], 86 mg/dL; in the experiment with Cricetinae gen. sp. [5] it was 96.4 mg/dL. Besides, 0.008 µM corresponded to half-maximal inhibition in the experiment listed under Homo sapiens (IC50).
`CC[C@H](C)C(=O)O[C@H]1C[C@@H](C)C=C2C=C[C@H](C)[C@H](CC[C@@H]3C[C@@H](O)CC(=O)O3)[C@H]21` [LOVASTATIN]: the TC in the experiment on Cricetinae gen. sp. [10] is 102.8 mg/dL; in the experiment with Cricetinae gen. sp. [14], 94.9 mg/dL; in the experiment on Cricetinae gen. sp. [15] it was 80.3 mg/dL; in the experiment with Cricetinae gen. sp. [16], 79.5 mg/dL; in the experiment with Cricetinae gen. sp. [17] it was 111.2 mg/dL and 114 mg/dL; with Cricetinae gen. sp. [18], 112.2 mg/dL. Further, the TC in the experiment on Cricetinae gen. sp. [19] was 99.4 mg/dL and 102 mg/dL. In addition, the Lowering was 37% in the experiment with Cricetinae gen. sp. [11]; 6% and 10% with Cricetinae gen. sp. [12]; 5% in the experiment on Cricetinae gen. sp. [13]; 26% with Cricetinae gen. sp. [20]; 38% with Cricetinae gen. sp. [21]; 16% and 19% in the experiment with Cricetinae gen. sp. [22]. Besides, the Lowering in the experiment with Cricetinae gen. sp. [23] is on record as 13%.
`Nc1ccc(SC[C@H]2CO[C@](CCc3ccc(Cl)cc3)(Cn3ccnc3)O2)cc1` showed a TC with Cricetinae gen. sp. [24] of 85.1 mg/dL. The same molecule returned a Lowering in the experiment on Cricetinae gen. sp. [25] of 40%.
